{
  "source": "paper PMC7913927",
  "about": "“Leishmanicidal Activity of Betulin Derivatives in Leishmania amazonensis; Effect on Plasma and Mitochondrial Membrane Potential, and Macrophage Nitric Oxide and Superoxide Production” (Microorganisms, 2021)",
  "tested_on": "VE2000MM intracellular amastigotes in J774.1 macrophages",
  "assay": "Macrophage-amastigote model, patient isolate VE2000MM",
  "format": "cell-based, Leishmania amazonensis",
  "conditions": "for Regresion (GraphPad 6) of %Control vs dose (50% inhibitory concentration) / Growth (%) Exp1 %Control / Growth (%) Exp1 A/100MØ / Growth (%) Exp1 A/MØ / Growth (%) Exp1 Infección / Growth (%) Exp2 %Control / Growth (%) Exp2 A/100MØ / Growth (%) Exp2 A/MØ / Growth (%) Exp2 Infección / Growth (%) Exp3 %Control / Growth (%) Exp3 A/100MØ / Growth (%) Exp3 A/MØ / Growth (%) Exp3 Infección / Average A/100MØ: VE2000MM; for Regresion (GraphPad 6) of %Control vs dose (50% inhibitory concentration): unit from Dose head; for Average A/100MØ: average of Exp1-3",
  "experimental": "We used a previously described methodology, with some modifications. Macrophage monolayers, grown in RMPIc medium, for 3 days, were detached from the bottom of the culture chamber, by physical treatment (low temperature and light strokes). Obtained macrophages were seeded in flat-bottom 96-well culture plates, at a density of 2 × 10^5 cells mL^−1 (40,000 macrophages/well), in a final volume of 200 µL. Plates were incubated for 2 h, and the supernatant was discarded to remove non-adhered macrophages. Medium was replaced with stationary-phase promastigotes suspended in 200 µL of RPMIc (2 × 10^6 parasites mL^−1, 400,000 parasites/well), at a macrophage: parasite ratio 1:10 [40]. The plates were incubated for 4 h. Afterwards the medium was replaced with fresh RPMIc and increasing concentrations of compounds or drugs tested were applied, in volumes of 2 µL, according to the different treatment groups. Plates were kept for 72 h, at 37 °C and 5% CO2. The medium was discarded and the wells were washed twice with PBS. Next, a Giemsa staining was performed in situ. It consisted of adding 200 µL of methanol/well, incubating for 5 min, discarding the fixative, and letting it dry at room temperature. Later, the Giemsa solution (10% in PBS w/v, 200 µL/well) was added, incubated for 10 min, and washed with PBS, allowing it to dry. Finally, the bottom of the plates was detached by percussion and the circular bottoms (wells) were fixed to slides with Permount synthetic resin, for later evaluation (Alcazar W., manuscript in preparation). Cell counting was performed with a 100× immersion objective. A minimum of 200 random macrophages were examined. The percentage of infected macrophages (% infection) and the average number of amastigotes present in infected macrophages (amastigotes) were determined. […] The infection rate represents the number of intracellular amastigotes per 100 macrophages evaluated. Additionally, the GI50 for the decrease in the infection rate was calculated. At least three independent experiments were performed. The effect of amphotericin-B (AmB) [Sigma-Aldrich, (St. Louis, MO, USA)] was included as positive control of the assay.",
  "note": "Like-named read-outs stand apart in the source and are kept apart here.",
  "data": [
    {"smiles": "C=C(C)C1CCC2(C=NO)CCC3(C)C(CCC4C5(C)CCC(=NO)C(C)(C)C5CCC43C)C12", "note": "(stereo not shown) [Compound 18]", "values": [
      {"measurement": "SI (CC50/GI50) VE2000MM", "setting": "J774.1 CC50 / intracellular amastigote GI50, Table 2", "result": 66.79},
      {"measurement": "GI50", "setting": "VE2000MM intracellular amastigotes, read-out: GI50 (µM) Experiment 1 Regresion", "result": 0.87, "unit": "µM"},
      {"measurement": "GI50", "setting": "VE2000MM intracellular amastigotes, read-out: GI50 (µM) Experiment 2 Regresion", "result": 0.43, "unit": "µM"},
      {"measurement": "GI50", "setting": "VE2000MM intracellular amastigotes, read-out: GI50 (µM) Experiment 3 Regresion", "result": 0.62, "unit": "µM"},
      {"measurement": "Regresion (GraphPad 6) of %Control vs dose (50% inhibitory concentration)", "setting": "Exp1", "result": 0.87, "unit": "µM"},
      {"measurement": "Regresion (GraphPad 6) of %Control vs dose (50% inhibitory concentration)", "setting": "Exp2", "result": 0.43, "unit": "µM"},
      {"measurement": "Regresion (GraphPad 6) of %Control vs dose (50% inhibitory concentration)", "setting": "Exp3", "result": 0.62, "unit": "µM"},
      {"measurement": "Growth (%) Exp1 %Control", "setting": "dose 0.10 µM, Exp1", "result": 85.88, "unit": "%"},
      {"measurement": "Growth (%) Exp1 A/100MØ", "setting": "dose 0.10 µM, Exp1", "result": 212.29},
      {"measurement": "Growth (%) Exp1 A/MØ", "setting": "dose 0.10 µM, Exp1", "result": 3.35},
      {"measurement": "Growth (%) Exp1 Infección", "setting": "dose 0.10 µM, Exp1", "result": 63.37, "unit": "%"},
      {"measurement": "Growth (%) Exp2 %Control", "setting": "dose 0.10 µM, Exp2", "result": 78.62, "unit": "%"},
      {"measurement": "Growth (%) Exp2 A/100MØ", "setting": "dose 0.10 µM, Exp2", "result": 190.11},
      {"measurement": "Growth (%) Exp2 A/MØ", "setting": "dose 0.10 µM, Exp2", "result": 3.20},
      {"measurement": "Growth (%) Exp2 Infección", "setting": "dose 0.10 µM, Exp2", "result": 59.41, "unit": "%"},
      {"measurement": "Growth (%) Exp3 %Control", "setting": "dose 0.10 µM, Exp3", "result": 72.17, "unit": "%"},
      {"measurement": "Growth (%) Exp3 A/100MØ", "setting": "dose 0.10 µM, Exp3", "result": 163.09},
      {"measurement": "Growth (%) Exp3 A/MØ", "setting": "dose 0.10 µM, Exp3", "result": 3.10},
      {"measurement": "Growth (%) Exp3 Infección", "setting": "dose 0.10 µM, Exp3", "result": 52.61, "unit": "%"},
      {"measurement": "Average A/100MØ", "setting": "dose 0.10 µM", "result": 188.50},
      {"measurement": "Growth (%) Exp1 %Control", "setting": "dose 0.50 µM, Exp1", "result": 66.72, "unit": "%"},
      {"measurement": "Growth (%) Exp1 A/100MØ", "setting": "dose 0.50 µM, Exp1", "result": 164.92},
      {"measurement": "Growth (%) Exp1 A/MØ", "setting": "dose 0.50 µM, Exp1", "result": 2.90},
      {"measurement": "Growth (%) Exp1 Infección", "setting": "dose 0.50 µM, Exp1", "result": 56.87, "unit": "%"},
      {"measurement": "Growth (%) Exp2 %Control", "setting": "dose 0.50 µM, Exp2", "result": 51.58, "unit": "%"},
      {"measurement": "Growth (%) Exp2 A/100MØ", "setting": "dose 0.50 µM, Exp2", "result": 124.74},
      {"measurement": "Growth (%) Exp2 A/MØ", "setting": "dose 0.50 µM, Exp2", "result": 2.98},
      {"measurement": "Growth (%) Exp2 Infección", "setting": "dose 0.50 µM, Exp2", "result": 41.86, "unit": "%"},
      {"measurement": "Growth (%) Exp3 %Control", "setting": "dose 0.50 µM, Exp3", "result": 54.73, "unit": "%"},
      {"measurement": "Growth (%) Exp3 A/100MØ", "setting": "dose 0.50 µM, Exp3", "result": 123.67},
      {"measurement": "Growth (%) Exp3 A/MØ", "setting": "dose 0.50 µM, Exp3", "result": 3.24},
      {"measurement": "Growth (%) Exp3 Infección", "setting": "dose 0.50 µM, Exp3", "result": 38.17, "unit": "%"},
      {"measurement": "Average A/100MØ", "setting": "dose 0.50 µM", "result": 137.78},
      {"measurement": "Growth (%) Exp1 %Control", "setting": "dose 1.00 µM, Exp1", "result": 45.38, "unit": "%"},
      {"measurement": "Growth (%) Exp1 A/100MØ", "setting": "dose 1.00 µM, Exp1", "result": 112.17},
      {"measurement": "Growth (%) Exp1 A/MØ", "setting": "dose 1.00 µM, Exp1", "result": 2.76},
      {"measurement": "Growth (%) Exp1 Infección", "setting": "dose 1.00 µM, Exp1", "result": 40.64, "unit": "%"},
      {"measurement": "Growth (%) Exp2 %Control", "setting": "dose 1.00 µM, Exp2", "result": 23.47, "unit": "%"},
      {"measurement": "Growth (%) Exp2 A/100MØ", "setting": "dose 1.00 µM, Exp2", "result": 56.76},
      {"measurement": "Growth (%) Exp2 A/MØ", "setting": "dose 1.00 µM, Exp2", "result": 1.93},
      {"measurement": "Growth (%) Exp2 Infección", "setting": "dose 1.00 µM, Exp2", "result": 29.41, "unit": "%"},
      {"measurement": "Growth (%) Exp3 %Control", "setting": "dose 1.00 µM, Exp3", "result": 44.34, "unit": "%"},
      {"measurement": "Growth (%) Exp3 A/100MØ", "setting": "dose 1.00 µM, Exp3", "result": 100.21},
      {"measurement": "Growth (%) Exp3 A/MØ", "setting": "dose 1.00 µM, Exp3", "result": 2.85},
      {"measurement": "Growth (%) Exp3 Infección", "setting": "dose 1.00 µM, Exp3", "result": 35.16, "unit": "%"},
      {"measurement": "Average A/100MØ", "setting": "dose 1.00 µM", "result": 89.71},
      {"measurement": "Growth (%) Exp1 %Control", "setting": "dose 5.00 µM, Exp1", "result": 12.40, "unit": "%"},
      {"measurement": "Growth (%) Exp1 A/100MØ", "setting": "dose 5.00 µM, Exp1", "result": 30.64},
      {"measurement": "Growth (%) Exp1 A/MØ", "setting": "dose 5.00 µM, Exp1", "result": 1.33},
      {"measurement": "Growth (%) Exp1 Infección", "setting": "dose 5.00 µM, Exp1", "result": 23.04, "unit": "%"},
      {"measurement": "Growth (%) Exp2 %Control", "setting": "dose 5.00 µM, Exp2", "result": 17.91, "unit": "%"},
      {"measurement": "Growth (%) Exp2 A/100MØ", "setting": "dose 5.00 µM, Exp2", "result": 43.32},
      {"measurement": "Growth (%) Exp2 A/MØ", "setting": "dose 5.00 µM, Exp2", "result": 2.00},
      {"measurement": "Growth (%) Exp2 Infección", "setting": "dose 5.00 µM, Exp2", "result": 21.66, "unit": "%"},
      {"measurement": "Growth (%) Exp3 %Control", "setting": "dose 5.00 µM, Exp3", "result": 26.77, "unit": "%"},
      {"measurement": "Growth (%) Exp3 A/100MØ", "setting": "dose 5.00 µM, Exp3", "result": 60.50},
      {"measurement": "Growth (%) Exp3 A/MØ", "setting": "dose 5.00 µM, Exp3", "result": 2.96},
      {"measurement": "Growth (%) Exp3 Infección", "setting": "dose 5.00 µM, Exp3", "result": 20.44, "unit": "%"},
      {"measurement": "Average A/100MØ", "setting": "dose 5.00 µM", "result": 44.82},
      {"measurement": "Growth (%) Exp1 %Control", "setting": "dose 10.00 µM, Exp1", "result": 11.00, "unit": "%"},
      {"measurement": "Growth (%) Exp1 A/100MØ", "setting": "dose 10.00 µM, Exp1", "result": 27.18},
      {"measurement": "Growth (%) Exp1 A/MØ", "setting": "dose 10.00 µM, Exp1", "result": 1.50},
      {"measurement": "Growth (%) Exp1 Infección", "setting": "dose 10.00 µM, Exp1", "result": 18.12, "unit": "%"},
      {"measurement": "Growth (%) Exp2 %Control", "setting": "dose 10.00 µM, Exp2", "result": 9.36, "unit": "%"},
      {"measurement": "Growth (%) Exp2 A/100MØ", "setting": "dose 10.00 µM, Exp2", "result": 22.64},
      {"measurement": "Growth (%) Exp2 A/MØ", "setting": "dose 10.00 µM, Exp2", "result": 1.78},
      {"measurement": "Growth (%) Exp2 Infección", "setting": "dose 10.00 µM, Exp2", "result": 12.72, "unit": "%"},
      {"measurement": "Growth (%) Exp3 %Control", "setting": "dose 10.00 µM, Exp3", "result": 7.87, "unit": "%"},
      {"measurement": "Growth (%) Exp3 A/100MØ", "setting": "dose 10.00 µM, Exp3", "result": 17.78},
      {"measurement": "Growth (%) Exp3 A/MØ", "setting": "dose 10.00 µM, Exp3", "result": 1.69},
      {"measurement": "Growth (%) Exp3 Infección", "setting": "dose 10.00 µM, Exp3", "result": 10.52, "unit": "%"},
      {"measurement": "Average A/100MØ", "setting": "dose 10.00 µM", "result": 22.53},
      {"measurement": "GI50", "setting": "intracellular amastigotes, Supplementary Materials II, read-out: GI50 (µM) VE2000MM, mean of three experiments", "result": 0.64, "unit": "µM"}
    ]}
  ]
}
